We go through nine compounds from patent publication US10765116B2, “2-[3-(alkylsulfonyl)-2H-indazol-2-yl]-3H-imidazo[4,5-B]pyridine derivatives and similar compounds as pesticides” (BAYER CROPSCIENCE AKTIENGESELLSCHAFT, priority 2016, dated 2020).

Common to all, as to type: in vivo
For test [1], the system named is Phaedon cochleariae. Nature of the test: Phaedon cochleariae spray test. As to conditions: application rate 100 g/ha, Chinese cabbage leaf discs, larvae, after 7 days. How it is done:
(§1) Solvent: 78.0 parts by weight of acetone • • 1.5 parts by weight of dimethylformamide Emulsifier: alkylaryl polyglycol ether To produce a suitable active ingredient formulation, 1 part by weight of active ingredient is dissolved with the specified parts by weight of solvent and made up to the desired concentration with water containing an emulsifier concentration of 1000 ppm. To produce further test concentrations, the formulation is diluted with emulsifier-containing water. Discs of Chinese cabbage leaves (Brassica pekinensis) are sprayed with an active ingredient formulation of the desired concentration and, after drying, populated with larvae of the mustard beetle (Phaedon cochleariae). After 7 days, the efficacy in % is determined. 100% means that all the beetle larvae have been killed; 0% means that no beetle larvae have been killed.

Test [2] relates to Spodoptera frugiperda. Nature of the test: Spodoptera frugiperda spray test. As to conditions: application rate 100 g/ha, maize leaf discs, caterpillars, after 7 days. How it is done: as §1, with “water. Leaf discs” for “water. Discs”, “of maize (Zea mays)” for “of Chinese cabbage leaves (Brassica pekinensis)”, “with caterpillars” for “with larvae”, “the armyworm (Spodoptera frugiperda).” for “the mustard beetle (Phaedon cochleariae).”, “the caterpillars” for “the beetle larvae”, “no caterpillar has” for “no beetle larvae have”

The test system of test [3] is Myzus persicae. Nature of the test: Myzus persicae oral test. As to conditions: 120 h, mixed population of green peach aphids, after 5 days, read-out: efficacy; for pest or weed control at 4 ppm: application rate 4 ppm; for pest or weed control at 20 ppm: application rate 20 ppm. Here is the method:
Solvent: 100 parts by weight of acetone To produce a suitable active ingredient formulation, 1 part by weight of active ingredient is dissolved with the stated parts by weight of solvent and made up to the desired concentration with water. 50 μl of the active ingredient formulation are transferred into microtitre plates and made up to a final volume of 200 μl with 150 μl of IPL41 insect medium (33%+15% sugar). Subsequently, the plates are sealed with parafilm, which a mixed population of green peach aphids (Myzus persicae) within a second microtitre plate is able to puncture and imbibe the solution through it. After 5 days, the efficacy in % is determined. 100% means that all the aphids have been killed; 0% means that no aphids have been killed.

Test [4] has as its system Lucilia cuprina. Nature of the test: Lucilia cuprina test. As to conditions: application rate 100 ppm, L1 larvae, minced horsemeat, after 2 days. How it is done:
Solvent: dimethyl sulfoxide To produce a suitable active ingredient formulation, 10 mg of active ingredient are mixed with 0.5 ml of dimethyl sulfoxide, and the concentrate is diluted with water to the desired concentration. About 20 L1 larvae of the Australian sheep blowfly (Lucilia cuprina) are transferred into a test vessel containing minced horsemeat and the active ingredient formulation of the desired concentration. After 2 days, the kill in % is determined. 100% means that all the larvae have been killed; 0% means that no larvae have been killed.

Test [5] relates to Ctenocephalides felis. Nature of the test: Ctenocephalides felis in vitro contact test with adult cat fleas. As to conditions: application rate 5 μg/cm^2 (=500 g/ha), coated glass tube, after 48 h. Here is the method:
For the coating of the test tubes, 9 mg of active ingredient are first dissolved in 1 ml of acetone p.a. and then diluted to the desired concentration with acetone p.a. 250 μl of the solution are distributed homogeneously on the inner walls and the base of a 25 ml glass tube by turning and rocking on an orbital shaker (rocking rotation at 30 rpm for 2 h). With 900 ppm of active ingredient solution and internal surface area 44.7 cm^2, given homogeneous distribution, an area-based dose of 5 μg/cm^2 is achieved. After the solvent has evaporated off, the glass tubes are populated with 5-10 adult cat fleas (Ctenocephalides felis), sealed with a perforated plastic lid and incubated in a horizontal position at room temperature and ambient humidity. After 48 h, efficacy is determined. To this end, the tubes are stood upright and the fleas are knocked to the base of the tube. Fleas which remain motionless at the base or move in an uncoordinated manner are considered to be dead or moribund. […] 100% efficacy means that all the fleas were dead or moribund. 0% efficacy means that no fleas were harmed.

Test [6] concerns Ctenocephalides felis. Nature of the test: Ctenocephalides felis oral test. As to conditions: application rate 100 ppm in citrated cattle blood, adult cat fleas, after 2 days. How it is done:
Solvent: dimethyl sulfoxide To produce a suitable active ingredient formulation, 10 mg of active ingredient are mixed with 0.5 ml of dimethyl sulfoxide. Dilution with citrated cattle blood gives the desired concentration. About 20 unfed adult cat fleas (Ctenocephalides felis) are placed into a chamber which is closed at the top and bottom with gauze. A metal cylinder whose bottom end is closed with parafilm is placed onto the chamber. The cylinder contains the blood/active ingredient formulation, which can be imbibed by the fleas through the parafilm membrane. After 2 days, the kill in % is determined. 100% means that all of the fleas have been killed; 0% means that none of the fleas have been killed.

Test [7] has as its system Myzus persicae. The test can be described thus: Myzus persicae spray test. As to conditions: application rate 100 g/ha, Chinese cabbage leaf discs, all stages, after 5 days. How it is done: as §1, with “78” for “78.0”, “pekinensis) infested by all stages of the green peach aphid (Myzus persicae)” for “pekinensis)”, “concentration.” for “concentration and, after drying, populated with larvae of the mustard beetle (Phaedon cochleariae).”, “5” for “7”, “aphids” for “beetle larvae”

Test [8] has as its system Musca domestica. Nature of the test: Musca domestica test. As to conditions: application rate 100 ppm, adult houseflies, after 2 days. How it is done:
Solvent: dimethyl sulfoxide
To produce a suitable active ingredient formulation, 10 mg of active ingredient are mixed with 0.5 ml of dimethyl sulfoxide, and the concentrate is diluted with water to the desired concentration.
Vessels containing a sponge treated with sugar solution and the active ingredient formulation of the desired concentration are populated with 10 adult houseflies (Musca domestica).
After 2 days, the kill in % is determined. 100% means that all of the flies have been killed; 0% means that none of the flies have been killed.

Test [9] has as its system Rhipicephalus sanguineus. Nature of the test: Rhipicephalus sanguineus in vitro contact test with adult brown dog ticks. As to conditions: application rate 5 μg/cm^2 (=500 g/ha), coated glass tube, after 48 h. How it is done:
For the coating of the test tubes, 9 mg of active ingredient are first dissolved in 1 ml of acetone p.a. and then diluted to the desired concentration with acetone p.a. 250 μl of the solution are distributed homogeneously on the inner walls and the base of a 25 ml glass tube by turning and rocking on an orbital shaker (rocking rotation at 30 rpm for 2 h). With 900 ppm of active ingredient solution and internal surface area 44.7 cm^2, given homogeneous distribution, an area-based dose of 5 μg/cm^2 is achieved. After the solvent has evaporated off, the tubes are populated with 5-10 adult dog ticks (Rhipicephalus sanguineus), sealed with a perforated plastic lid and incubated in a horizontal position in the dark at room temperature and ambient humidity. After 48 h, efficacy is determined. To this end, the ticks are knocked to the base of the tube and incubated on a hotplate at 45-50° C. for not more than 5 min. Ticks which remain motionless on the base or move in such an uncoordinated manner that they are unable to deliberately avoid the heat by climbing upwards are considered to be dead or moribund. […] An efficacy of 100% means that all the ticks were dead or moribund. 0% efficacy means that none of the ticks were harmed.

Molecules are shown by their SMILES.

On to `CCS(=O)(=O)c1c2ccc(Cl)cc2nn1-c1nc2cc(C(F)(F)F)cnc2n1C` [Example I-1, 2-[6-Chloro-3-(ethylsulfonyl)-2H-indazol-2-yl]-3-methyl-6-(trifluoromethyl)-3H-imidazo[4,5-b]pyridine], for which the efficacy in [1] and in [2] was 100% in each case. Moreover, the pest or weed control at 4 ppm in test [3] amounted to 90%. The “efficacy (kill)” value in test [4] is recorded as 100%.

For the compound `CCS(=O)(=O)c1c2cc(Cl)ccc2nn1-c1nc2cc(C(F)(F)F)cnc2n1C` [Example I-2, 2-[5-Chloro-3-(ethylsulfonyl)-2H-indazol-2-yl]-3-methyl-6-(trifluoromethyl)-3H-imidazo[4,5-b]pyridine], the efficacy in [5], in [1] and in [2] was 100% each time. The pest or weed control at 4 ppm in test [3] came out at 100%. Further, the pest or weed control at 20 ppm in test [3] was 100%. For the same compound, the “efficacy (kill)” value in test [6] worked out at 80%; in [4], 100%.

With `CCS(=O)(=O)c1c2ccccc2nn1-c1nc2cc(C(F)(F)F)cnc2n1C` [Example I-3], the efficacy in test [1] and in test [7] was 100% throughout. In test [3], the pest or weed control at 4 ppm stood at 90%. Further, in test [4], the “efficacy (kill)” value is listed as 100%.

Take `CCS(=O)(=O)c1c2cccc(Cl)c2nn1-c1nc2cc(C(F)(F)F)cnc2n1C` [Example I-4]: in test [1], the efficacy is 100%. Further, the pest or weed control at 4 ppm in test [3] came out at 90%.

As for `CCS(=O)(=O)c1c2cc(C(F)(F)F)ccc2nn1-c1nc2cc(C(F)(F)F)cnc2n1C` [Example I-5], the efficacy in test [5], in test [1] and in [2] was 100% in each case. The pest or weed control at 4 ppm in [3] was 100%. Also, the “efficacy (kill)” value in [4] came to 100%.

For `CCS(=O)(=O)c1c2ccc(C(F)(F)F)cc2nn1-c1nc2cc(C(F)(F)F)cnc2n1C` [Example I-6], the efficacy in test [5], in [1] and in test [2] was 100% in each case. Further, the “efficacy (kill)” value in test [8] was found to be 90%; in test [4], 100%. Moreover, the pest or weed control at 4 ppm in test [3] was 100%. Besides, the pest or weed control at 20 ppm in test [3] turned out to be 100%.

As for `CCS(=O)(=O)c1c2c(nn1-c1nc3cc(C(F)(F)F)cnc3n1C)CCCC2` [Example I-10, 2-[3-(Ethylsulfonyl)-4,5,6,7-tetrahydro-2H-indazol-2-yl]-3-methyl-6-(trifluoromethyl)-3H-imidazo[4,5-b]pyridine], the efficacy in test [5] is recorded as 100%; in test [7], 90%; in test [9] it was 100%. Moreover, the pest or weed control at 4 ppm in test [3] came to 100%. The “efficacy (kill)” value in [4] came out at 100%.

In test [7], `CCS(=O)(=O)c1c2c(nn1-c1nc3cc(C(F)(F)F)cnc3n1C)CC(C)(C)CC2` [Example I-11] had an efficacy of 90%. Moreover, the pest or weed control at 4 ppm in test [3] was 100%.

As for `CCS(=O)(=O)c1c2ccc(C(F)(F)F)cc2nn1-c1nc2cc(C(F)(F)F)ncc2n1C` [Example I-12], the efficacy in [1] and in test [2] was 100% in each case. The pest or weed control at 4 ppm in [3] was 100%.
